The source made the active and inactive calls.
Columns and labels:
[1] = target: Voltage-dependent T-type calcium channel subunit alpha-1H (Homo sapiens, UniProt O95180); type: functional;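 also: channel activity triggered by adding a high calcium stimulation buffer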
[2] = inhibitors of intracellular T. cruzi replication, confirmation, NIH3T3 host cells, beta-gal luminescence (AID 2044); type: functional, cell-based;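 also: intracellular parasites grown in NIH/3T3 mouse fibroblasts as host cells; luminescent beta-galactosidase reporter signal from transgenic T. cruzi replicating inside host cells; inhibitors lower the luminescence signal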
[3] = cytotoxicity toward NIH3T3 fibroblasts, dose response, counter-screen, cell-based, ATP luminescence, mouse fibroblasts (AID 2010); type: functional;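 also: cells exposed to compound for about 90 hours before reading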
Cytochrome P450 2C9 = Cytochrome P450 2C9 (Homo sapiens, UniProt P11712)
Protein skinhead-1 = target: T1, Protein skinhead-1 (Caenorhabditis elegans, UniProt P34707); type: functional
T1 sequence (P34707 whole entry): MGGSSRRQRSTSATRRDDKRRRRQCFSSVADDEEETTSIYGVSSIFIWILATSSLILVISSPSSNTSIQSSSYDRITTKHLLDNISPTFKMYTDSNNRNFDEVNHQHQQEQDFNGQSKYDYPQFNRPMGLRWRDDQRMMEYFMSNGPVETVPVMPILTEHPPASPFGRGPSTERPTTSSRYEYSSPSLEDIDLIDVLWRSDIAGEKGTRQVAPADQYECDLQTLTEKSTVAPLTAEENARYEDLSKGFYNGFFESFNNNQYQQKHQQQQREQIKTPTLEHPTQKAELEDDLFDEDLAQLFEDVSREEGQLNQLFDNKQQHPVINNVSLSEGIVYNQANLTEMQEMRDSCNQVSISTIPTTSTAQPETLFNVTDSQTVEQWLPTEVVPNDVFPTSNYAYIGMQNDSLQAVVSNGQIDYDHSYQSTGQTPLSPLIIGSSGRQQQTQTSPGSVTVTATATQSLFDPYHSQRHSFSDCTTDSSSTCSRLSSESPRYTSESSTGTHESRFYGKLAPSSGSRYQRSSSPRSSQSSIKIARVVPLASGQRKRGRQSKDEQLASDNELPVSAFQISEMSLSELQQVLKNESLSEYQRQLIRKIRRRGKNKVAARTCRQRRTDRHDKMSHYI

[4] = ZM109 Env clade C HIV-1 fusion inhibitors, dose response, HeLa effector, CEM target cells, luciferase, cherry-pick (AID 652058); type: functional, cell-based
[5] = inhibitors of clade B AD8 Env fusion, dose response, cell-based, cherry-pick (AID 652062); type: functional;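 also: luciferase signal from cell-cell fusion driven by HIV-1 clade B AD8 Env; potency is for inhibitors of fusion seen as a drop in luminescence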
[6] = inhibitors of HIV Env-driven cell fusion, dose response, cherry-pick (AID 652057); type: functional, cell-based
Large T antigen = Large T antigen (Simian virus 40, UniProt P03070); type: functional, Betapolyomavirus macacae;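 also: Confirmatory-stage PubChem screen for compounds that inhibit SV40 T antigen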
Cytochrome P450 2C19 = Cytochrome P450 2C19 (Homo sapiens, UniProt P33261); test: Cytochrome panel assay with activity outcomes. Panel member name: p450-cyp2c19 Compounds with AC50 equal or less than 10 uM are considered active; type: functional; details: read-out: AC50
[7] = Vero E6 cell cytotoxicity, dose response, cytotoxicity control for non-replicating M. tuberculosis project, secondary assay (AID 492998); type: functional, VeroE6; details: Vero C1008
[8] = THP-1 cell cytotoxicity, dose response, cytotoxicity control for non-replicating M. tuberculosis project (AID 489025); type: functional
[9] = HepG2 cell cytotoxicity, dose response, cytotoxicity control for non-replicating M. tuberculosis project (AID 489018); type: functional; details: Mycobacterium tuberculosis
Aminopeptidase N = target: T2, Aminopeptidase N (Plasmodium falciparum FcB1/Columbia, UniProt O96935); test: P. falciparum M1AAP inhibitors, biochemical, fluorogenic H-Leu-NHMec substrate, 1536-well (AID 1445); set-up: species or system Plasmodium falciparum 3D7, 3D7
T2 sequence (O96935 whole entry): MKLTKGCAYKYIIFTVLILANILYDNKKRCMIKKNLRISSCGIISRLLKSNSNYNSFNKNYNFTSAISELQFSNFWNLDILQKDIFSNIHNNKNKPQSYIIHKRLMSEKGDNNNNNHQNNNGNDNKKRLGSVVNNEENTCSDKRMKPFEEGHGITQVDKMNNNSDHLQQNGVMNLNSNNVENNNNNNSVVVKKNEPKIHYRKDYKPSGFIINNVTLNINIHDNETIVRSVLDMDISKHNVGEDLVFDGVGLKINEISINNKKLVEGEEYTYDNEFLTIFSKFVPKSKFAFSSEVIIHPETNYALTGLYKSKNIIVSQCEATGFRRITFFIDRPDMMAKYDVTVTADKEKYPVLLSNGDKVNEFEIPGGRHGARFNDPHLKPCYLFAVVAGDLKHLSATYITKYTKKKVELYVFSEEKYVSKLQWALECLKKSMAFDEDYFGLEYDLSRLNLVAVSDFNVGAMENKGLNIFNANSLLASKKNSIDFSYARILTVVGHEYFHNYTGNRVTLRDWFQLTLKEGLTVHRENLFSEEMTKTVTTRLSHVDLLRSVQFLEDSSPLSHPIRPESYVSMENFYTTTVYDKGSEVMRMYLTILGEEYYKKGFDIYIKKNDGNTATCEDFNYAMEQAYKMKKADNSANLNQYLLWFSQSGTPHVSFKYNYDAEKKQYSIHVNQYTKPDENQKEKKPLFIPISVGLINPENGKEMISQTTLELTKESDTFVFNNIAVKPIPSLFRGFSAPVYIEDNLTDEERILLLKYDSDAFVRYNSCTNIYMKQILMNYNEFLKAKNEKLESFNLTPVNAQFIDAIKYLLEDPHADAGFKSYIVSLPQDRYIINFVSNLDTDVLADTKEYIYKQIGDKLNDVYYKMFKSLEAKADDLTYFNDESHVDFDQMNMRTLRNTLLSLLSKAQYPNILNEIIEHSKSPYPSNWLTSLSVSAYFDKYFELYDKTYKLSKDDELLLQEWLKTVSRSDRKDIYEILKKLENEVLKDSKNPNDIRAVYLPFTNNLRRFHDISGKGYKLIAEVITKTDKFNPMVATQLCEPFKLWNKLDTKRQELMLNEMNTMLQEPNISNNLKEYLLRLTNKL

Leucine aminopeptidase = target: T3, Leucine aminopeptidase (Plasmodium falciparum 3D7, UniProt Q8IL11); test: P. falciparum M17LAP inhibitors, primary screen, biochemical, fluorogenic H-Leu-NHMec substrate, 1536-well (AID 1619); type: functional
T3 sequence (Q8IL11 whole entry): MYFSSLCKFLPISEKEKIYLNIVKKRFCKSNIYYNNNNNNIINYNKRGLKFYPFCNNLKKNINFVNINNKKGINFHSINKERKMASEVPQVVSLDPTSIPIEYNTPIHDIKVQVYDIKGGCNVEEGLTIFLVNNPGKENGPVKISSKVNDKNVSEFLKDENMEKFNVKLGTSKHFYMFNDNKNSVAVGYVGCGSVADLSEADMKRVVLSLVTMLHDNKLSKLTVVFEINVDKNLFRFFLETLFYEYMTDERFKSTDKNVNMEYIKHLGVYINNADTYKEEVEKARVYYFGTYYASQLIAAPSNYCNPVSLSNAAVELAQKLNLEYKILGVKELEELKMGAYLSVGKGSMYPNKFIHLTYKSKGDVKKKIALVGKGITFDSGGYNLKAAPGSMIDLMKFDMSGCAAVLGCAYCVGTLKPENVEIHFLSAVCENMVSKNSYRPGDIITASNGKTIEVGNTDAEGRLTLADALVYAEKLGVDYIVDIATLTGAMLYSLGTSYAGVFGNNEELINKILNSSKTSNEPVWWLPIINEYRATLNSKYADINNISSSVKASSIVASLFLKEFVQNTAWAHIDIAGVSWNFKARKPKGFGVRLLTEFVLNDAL

Voltage-dependent T-type calcium channel subunit alpha-1H, sequence (O95180 whole entry): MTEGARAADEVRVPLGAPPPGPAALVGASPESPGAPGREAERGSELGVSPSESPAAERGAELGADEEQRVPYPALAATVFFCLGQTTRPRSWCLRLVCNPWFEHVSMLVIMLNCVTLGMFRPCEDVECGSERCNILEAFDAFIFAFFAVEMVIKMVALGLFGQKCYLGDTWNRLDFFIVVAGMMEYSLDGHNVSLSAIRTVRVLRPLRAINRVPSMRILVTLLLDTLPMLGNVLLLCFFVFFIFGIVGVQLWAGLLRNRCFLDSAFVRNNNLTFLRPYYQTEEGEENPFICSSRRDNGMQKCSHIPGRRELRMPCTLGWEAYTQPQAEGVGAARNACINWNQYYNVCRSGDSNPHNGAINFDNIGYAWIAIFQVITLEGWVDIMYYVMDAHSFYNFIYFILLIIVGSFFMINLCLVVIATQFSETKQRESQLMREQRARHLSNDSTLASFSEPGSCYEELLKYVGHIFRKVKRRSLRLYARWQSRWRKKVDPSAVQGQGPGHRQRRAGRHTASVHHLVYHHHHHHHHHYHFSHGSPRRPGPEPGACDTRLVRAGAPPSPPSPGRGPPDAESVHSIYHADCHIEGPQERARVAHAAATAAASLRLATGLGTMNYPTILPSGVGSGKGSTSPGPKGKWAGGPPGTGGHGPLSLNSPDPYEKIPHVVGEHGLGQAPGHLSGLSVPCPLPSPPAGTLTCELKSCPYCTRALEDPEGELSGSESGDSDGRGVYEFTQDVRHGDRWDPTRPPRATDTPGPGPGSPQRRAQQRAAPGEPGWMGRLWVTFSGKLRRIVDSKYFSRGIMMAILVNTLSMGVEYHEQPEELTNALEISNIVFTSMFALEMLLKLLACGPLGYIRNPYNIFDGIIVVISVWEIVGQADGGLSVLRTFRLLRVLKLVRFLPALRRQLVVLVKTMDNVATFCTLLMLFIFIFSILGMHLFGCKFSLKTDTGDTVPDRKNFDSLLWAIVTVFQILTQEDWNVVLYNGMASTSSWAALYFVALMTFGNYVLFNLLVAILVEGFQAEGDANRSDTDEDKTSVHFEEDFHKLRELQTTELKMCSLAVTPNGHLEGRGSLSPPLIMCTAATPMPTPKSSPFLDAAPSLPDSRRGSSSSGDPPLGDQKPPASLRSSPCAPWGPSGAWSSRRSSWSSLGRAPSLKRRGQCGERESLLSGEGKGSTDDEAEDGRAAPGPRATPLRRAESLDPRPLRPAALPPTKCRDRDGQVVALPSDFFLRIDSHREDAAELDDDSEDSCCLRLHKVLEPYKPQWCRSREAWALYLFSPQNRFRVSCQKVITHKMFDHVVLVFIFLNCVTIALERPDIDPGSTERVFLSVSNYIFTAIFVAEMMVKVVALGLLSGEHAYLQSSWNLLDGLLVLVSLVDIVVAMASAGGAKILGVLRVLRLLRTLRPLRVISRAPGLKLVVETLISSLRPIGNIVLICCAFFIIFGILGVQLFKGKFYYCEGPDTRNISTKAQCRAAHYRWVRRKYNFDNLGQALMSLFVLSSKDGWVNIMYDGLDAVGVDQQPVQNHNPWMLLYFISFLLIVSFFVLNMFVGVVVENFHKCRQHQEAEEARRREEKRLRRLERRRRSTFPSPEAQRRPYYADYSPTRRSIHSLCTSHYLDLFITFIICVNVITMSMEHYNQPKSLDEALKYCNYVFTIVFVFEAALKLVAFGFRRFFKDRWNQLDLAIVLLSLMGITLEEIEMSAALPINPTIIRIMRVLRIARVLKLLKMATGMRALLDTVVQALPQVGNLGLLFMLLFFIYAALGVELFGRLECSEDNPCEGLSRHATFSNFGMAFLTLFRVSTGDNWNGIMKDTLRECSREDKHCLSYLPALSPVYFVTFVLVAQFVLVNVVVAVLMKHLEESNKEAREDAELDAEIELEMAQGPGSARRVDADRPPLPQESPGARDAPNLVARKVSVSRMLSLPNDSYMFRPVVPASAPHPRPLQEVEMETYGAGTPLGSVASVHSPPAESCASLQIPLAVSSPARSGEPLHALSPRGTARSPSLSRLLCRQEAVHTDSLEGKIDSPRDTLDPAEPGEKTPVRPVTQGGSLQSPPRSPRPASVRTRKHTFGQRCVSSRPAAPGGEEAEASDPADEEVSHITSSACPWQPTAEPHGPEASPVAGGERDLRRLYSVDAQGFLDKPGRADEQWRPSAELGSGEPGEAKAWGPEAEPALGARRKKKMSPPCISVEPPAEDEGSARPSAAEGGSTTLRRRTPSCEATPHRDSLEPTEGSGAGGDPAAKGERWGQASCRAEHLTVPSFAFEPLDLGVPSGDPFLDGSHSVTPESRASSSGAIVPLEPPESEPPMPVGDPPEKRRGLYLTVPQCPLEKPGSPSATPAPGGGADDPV
Cytochrome P450 2C9, sequence (P11712 whole entry): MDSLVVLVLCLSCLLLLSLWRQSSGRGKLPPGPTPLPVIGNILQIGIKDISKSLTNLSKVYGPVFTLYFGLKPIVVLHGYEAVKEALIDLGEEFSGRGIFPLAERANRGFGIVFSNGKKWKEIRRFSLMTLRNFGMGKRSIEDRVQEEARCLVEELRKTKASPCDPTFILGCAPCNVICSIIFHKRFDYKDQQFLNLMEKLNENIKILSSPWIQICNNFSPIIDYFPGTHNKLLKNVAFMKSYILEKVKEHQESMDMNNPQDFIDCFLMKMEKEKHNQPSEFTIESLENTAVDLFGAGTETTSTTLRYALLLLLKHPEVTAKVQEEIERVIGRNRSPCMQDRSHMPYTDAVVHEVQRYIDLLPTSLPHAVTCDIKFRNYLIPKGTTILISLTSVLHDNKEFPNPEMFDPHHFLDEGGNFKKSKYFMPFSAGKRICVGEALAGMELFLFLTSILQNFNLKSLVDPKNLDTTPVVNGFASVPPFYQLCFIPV
Large T antigen, sequence (P03070 whole entry): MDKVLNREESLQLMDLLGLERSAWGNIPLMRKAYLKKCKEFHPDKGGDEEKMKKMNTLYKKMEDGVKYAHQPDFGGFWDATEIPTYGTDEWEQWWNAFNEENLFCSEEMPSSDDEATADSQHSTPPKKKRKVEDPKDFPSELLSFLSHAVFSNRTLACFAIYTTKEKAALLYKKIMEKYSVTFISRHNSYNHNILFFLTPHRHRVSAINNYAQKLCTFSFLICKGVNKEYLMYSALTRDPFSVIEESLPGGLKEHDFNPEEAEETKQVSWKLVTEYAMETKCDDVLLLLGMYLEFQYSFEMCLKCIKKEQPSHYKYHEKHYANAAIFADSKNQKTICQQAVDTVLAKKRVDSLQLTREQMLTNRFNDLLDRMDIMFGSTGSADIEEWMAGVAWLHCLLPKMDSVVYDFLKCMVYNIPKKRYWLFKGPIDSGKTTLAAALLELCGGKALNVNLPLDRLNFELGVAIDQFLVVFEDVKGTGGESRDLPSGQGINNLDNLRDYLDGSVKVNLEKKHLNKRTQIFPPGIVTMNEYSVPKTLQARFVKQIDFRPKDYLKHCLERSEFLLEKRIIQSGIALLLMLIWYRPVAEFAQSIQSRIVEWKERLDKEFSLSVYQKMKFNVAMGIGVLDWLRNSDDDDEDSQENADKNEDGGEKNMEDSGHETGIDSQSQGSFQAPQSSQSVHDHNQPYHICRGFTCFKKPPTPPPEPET
Cytochrome P450 2C19, sequence (P33261 whole entry): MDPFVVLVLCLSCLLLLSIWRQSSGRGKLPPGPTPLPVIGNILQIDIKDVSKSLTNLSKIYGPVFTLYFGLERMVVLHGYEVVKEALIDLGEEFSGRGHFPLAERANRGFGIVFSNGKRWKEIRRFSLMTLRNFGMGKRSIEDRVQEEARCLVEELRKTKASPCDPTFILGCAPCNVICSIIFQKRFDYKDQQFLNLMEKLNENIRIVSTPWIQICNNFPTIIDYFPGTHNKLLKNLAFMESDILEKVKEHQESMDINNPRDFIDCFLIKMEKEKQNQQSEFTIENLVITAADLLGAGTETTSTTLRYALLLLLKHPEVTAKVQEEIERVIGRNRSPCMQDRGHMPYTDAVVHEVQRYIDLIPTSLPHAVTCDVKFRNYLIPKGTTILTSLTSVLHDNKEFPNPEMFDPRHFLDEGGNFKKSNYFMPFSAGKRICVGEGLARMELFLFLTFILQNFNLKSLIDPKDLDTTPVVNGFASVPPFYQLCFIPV

For O=S(=O)(c1ccc(Oc2ccc(Cl)cc2)c(S(=O)(=O)N2CCCCC2)c1)N1CCCCC1, the EC50 [1] was 2.28 µM (active).
With CC(Sc1nnnn1-c1ccccc1)C(=O)Nc1ccc(Cl)cn1 (stereo not given) the EC50 [1] was 6.14 µM (active).
In the case of Cc1c(Cl)cccc1NC(=O)c1nc(C)n(-c2cc(OC(C)C)c(Cl)cc2Cl)n1, the EC50 [2] is reported as 2.77 µM (active), the EC50 [1] is reported as 7.19 µM (active) and the EC50 [3] is reported as > 60 µM (not active).
In the case of Cc1cccc(C)c1NC(=O)CSc1nnc(-c2ccccc2)n1Cc1ccc2c(c1)OCO2, the EC50 [1] is reported as 5.4 µM (active).
For Cn1c(Oc2ccccc2)c(C=O)c2ccccc21, the AC50 (Cytochrome P450 2C9) was “inconclusive”.
In the case of CCn1c(SCC(=O)NC2CCCCC2)nnc1-c1cc2cccc(OC)c2o1, the AC50 (Cytochrome P450 2C9) is reported as “inconclusive” and the IC50 (Protein skinhead-1) is reported as > 100 µM (inactive).
With C[C@H](CO)N1C[C@H](C)[C@H](CN(C)C(=O)NC2CCCC2)Oc2cc(C#Cc3ccc(F)cc3)ccc2S1(=O)=O the AC50 [4] was 13.2 µM (active), the AC50 [5] was 24.9 µM (active) and the AC50 [6] was 24.5 µM (active).
With C[C@@H](NC(=O)/C(C#N)=C/c1ccc(O)c(O)c1)c1ccccc1 the AC50 (Cytochrome P450 2C9) was “inconclusive”, the IC50 (Large T antigen) was 7.28 µM (active) and the AC50 (Cytochrome P450 2C19) was 39.8 µM (inconclusive).
In the case of CCCCCCCC(=O)N/N=C(\C)c1ccc(O)cc1O, the CC50 [7] is reported as 12.6 µM (active), the CC50 [8] is reported as 20 µM (active) and the CC50 [9] is reported as 20 µM (active).
With COc1ccc(/C=N/NC(=O)CSc2nnc(O)nc2O)cc1 the IC50 (Aminopeptidase N) was 29 µM (active) and the IC50 (Leucine aminopeptidase) was 7.36 µM (active).
